Laboratory results published in US10993950B2, “Medical device for the treatment of HPV cutaneous infections” (Poli MD S.R.L., priority 2017, dated 2021).

System: SkinEthic RHE/S/17 reconstituted human epidermis
Experiment: TEM ultrastructure of artificial constructs of human skin (SkinEthic) after treatment with ASA compositions
Assay type: cell-based
Protocol: Experiments Comparing Different ASA-Containing Compositions on the Ultrastructure of Artificial Constructs of Human Skin (SkinEthic)
Artificial Constructs of Human Skin
SkinEthic™ RHE/S/17 reconstituted human epidermis samples were used. This is an in vitro reconstituted human epidermis from normal human keratinocytes grown on a polycarbonate filter at the air-liquid interface.
The tissue samples were removed from the protective agarose and incubated in a multiwell with 6 wells with 1 ml of maintenance medium per well.
After about 14 hours of incubation with the described-above compositions, the epidermis inserts were cut and fixed in 500 microliters of fixative (glutaraldehyde 2.5%, paraformaldehyde 2% in cacodylate buffer 0.1 M at pH 7.4) for 2 hours at room temperature.
After trimming small rectangles of fabric, the samples were included in an epoxy resin. Ultra-thin slices were obtained and placed on copper screens, then stained with uranyl acetate and lead citrate.

CC(O)CO (stereo not drawn) [Composition 3, propylene glycol]
overall appearance of the basal, spinous and granular layers (TEM): preserved and similar to the control
N. of corneocyte layers left after treatment (about 14 hours of incubation, TEM, not-treated control >25): 19-20
efficacy as judged from corneocyte layers left (verbal rating of Table 1 data): poor efficacy
